Results taken from US6057325A, “Hexahydro-pyrido(4,3-b)indole derivatives as antipsychotic drugs” (Janssen Pharmaceutia, N.V., priority 1996, dated 2000).

Assays:
Assay type in all cases: in vivo
dopamine = assay: Combined ATN test in rats: apomorphine (APO) challenge, central dopamine antagonism; details: Rattus norvegicus, sc, subcutaneous pretreatment, dose protecting 50% of animals, central dopamine antagonistic activity
[1] = system: serotonin 5HT2 -receptors; assay: Combined ATN test in rats: tryptamine (TRY) challenge, central and peripheral serotonin antagonism; details: subcutaneous pretreatment, dose protecting 50% of animals; for TRY convulsions ED50: central serotonin antagonistic activity; for TRY hyperaemia ED50: peripheral serotonin antagonistic activity
Excerpt: The central dopamine antagonistic and serotonin antagonistic activity of the subject compounds is evidenced by the experimental data obtained in the combined apomorphine (APO), tryptamine (TRY) and norepinephrine (NOR) test in rats. Said combined apomorphine, tryptamine and norepinephrine test is described in Arch. Int. Pharmacodyn., 227, 238-253 (1977) and provides an empirical evaluation of the relative specificity with which drugs may effect particular neurotransmitter systems centrally (CNS) as well as peripherally. […] Central dopamine antagonism is evaluated by challenging rats, subcutaneously pretreated with different doses of the test compound, with apomorphine which is a dopamine agonist. Next, serotonin antagonism is evaluated by challenging the same rats, subcutaneously pretreated with different doses of the test compound, with tryptamine which is an agonist at serotonin 5HT2 -receptors. Both central and peripheral serotonin antagonism can be assessed in this test. Centrally acting serotonin antagonists are potential antipsychotic drugs, in particular when simultaneously displaying dopamine antagonism in the first part of this test. Finally, α-adrenergic antagonistic activity of the test compounds is evaluated by challenging the same rats, subcutaneously pretreated with different doses of the test compound, with norepinephrine which is an α-adrenergic agonist.
The experimental data are summarized in Table 3 and expressed as ED50 values in mg/kg body weight, which are defined as the dose at which each of the tested compounds protects 50% of the tested animals from a relevant response evoked by the above-mentioned challenging substances. Column APO lists the results of the apomorphine challenge, indicating central dopamine antagonistic activity. Column TRY convulsions and TRY hyperaemia list the results of the tryptamine challenge, indicating central and peripheral serotonin antagonistic activity respectively. Column NOR lists the results of the norepinephrine challenge, indicating α-adrenergicantagonist activity. The favourable pharmacological properties of the compounds of formula (I) lie in their potent central dopamine (column APO) and serotonin (column TRY convulsions) antagonistic activity.

α-adrenergic = assay: Combined ATN test in rats: norepinephrine (NOR) challenge, α-adrenergic antagonist activity; details: Rattus norvegicus, sc, subcutaneous pretreatment, dose protecting 50% of animals

Row | SMILES | ED50 (dopamine) | TRY convulsions ED50 [1] | TRY hyperaemia ED50 [1] | ED50 (α-adrenergic)
1 | Cc1nc2sccn2c(=O)c1CCN1CC[C@H]2Nc3ccccc3[C@@H]2C1 (racemic) [Compound 11, (±)-trans-6-[2-(1,3,4,4a,5,9b-hexahydro-2H-pyrido[4,3-b]indol-2-yl)ethyl]-7-methyl-5H-thiazolo[3,2-a]pyrimidin-5-one] | 0.31 mg/kg | 0.31 mg/kg | ≤ 0.04 mg/kg | 
2 | Cc1nc2sccn2c(=O)c1CCN1CC[C@H]2Nc3ccc(F)cc3[C@@H]2C1 (racemic) [Compound 15, (±)-trans-6-[2-(8-fluoro-1,3,4,4a,5,9b-hexahydro-2H-pyrido[4,3-b]indol-2-yl)ethyl]-7-methyl-5H-thiazolo[3,2-a]pyrimidin-5-one] | 0.31 mg/kg | 0.31 mg/kg | ≤ 0.0025 mg/kg | > 10 mg/kg
3 | Cc1nc2n(c(=O)c1CCN1CC[C@@H]3[C@@H](C1)c1cc(F)ccc1N3c1ccc(F)cc1)CCS2 (racemic) [Compound 23, (±)-trans-6-[2-[8-fluoro-5-(4-fluoro-phenyl)-1,3,4,4a,5,9b-hexahydro-2H-pyrido[4,3-b]indol-2-yl]ethyl]-2,3-dihydro-7-methyl-5H-thiazolo[3,2-a]pyrimidin-5-one] | 0.12 mg/kg | 0.08 mg/kg | ≤ 0.01 mg/kg | 0.03 mg/kg
4 | Cc1nc2scc(C)n2c(=O)c1CCN1CC[C@H]2Nc3ccccc3[C@@H]2C1 (relative stereo) [Compound 12] | 1.25 mg/kg | 1.25 mg/kg | 0.02 mg/kg | > 10 mg/kg
5 | Cc1nc2n(c(=O)c1CCN1CC[C@H]3Nc4ccccc4[C@@H]3C1)CCS2 (relative stereo) [Compound 13] | 2.5 mg/kg | 5 mg/kg | ≤ 0.04 mg/kg | 
6 | Cc1nc2ccccn2c(=O)c1CCN1CC[C@H]2Nc3ccccc3[C@@H]2C1 (relative stereo) [Compound 14] | 0.31 mg/kg | 1.25 mg/kg | ≤ 0.16 mg/kg | 
7 | Cc1nc2scc(C)n2c(=O)c1CCN1CC[C@H]2Nc3ccc(F)cc3[C@@H]2C1 (relative stereo) [Compound 16] | 0.25 mg/kg | 0.45 mg/kg | 0.015 mg/kg | > 10 mg/kg
8 | Cc1nc2ccccn2c(=O)c1CCN1CC[C@H]2Nc3ccc(F)cc3[C@@H]2C1 (relative stereo) [Compound 17] | 0.08 mg/kg | 0.5 mg/kg | ≤ 0.04 mg/kg | 
9 | Cc1nc2n(c(=O)c1CCN1CC[C@H]3Nc4ccc(F)cc4[C@@H]3C1)CCCC2 (relative stereo) [Compound 18] | 0.31 mg/kg | 2 mg/kg | 0.02 mg/kg | 
10 | Cc1nc2sccn2c(=O)c1CCN1CC[C@@H]2[C@@H](C1)c1ccccc1N2C (relative stereo) [Compound 19] | 8 mg/kg | 1.25 mg/kg | 0.31 mg/kg | 5 mg/kg
11 | Cc1nc2ccccn2c(=O)c1CCN1CC[C@@H]2[C@@H](C1)c1ccccc1N2C (relative stereo) [Compound 20] | 1.25 mg/kg | 1.25 mg/kg | ≤ 0.63 mg/kg | 5 mg/kg
12 | Cc1nc2sccn2c(=O)c1CCN1CC[C@H]2[C@H](C1)c1cc(F)ccc1N2c1ccc(F)cc1 (relative stereo) [Compound 22] | 1.25 mg/kg | 1.25 mg/kg | 0.08 mg/kg | 0.5 mg/kg
13 | Cc1nc2scc(C)n2c(=O)c1CCN1CC[C@@H]2[C@@H](C1)c1cc(F)ccc1N2c1ccc(F)cc1 (relative stereo) [Compound 24] | 5 mg/kg | 1.25 mg/kg | ≤ 0.04 mg/kg | 
14 | Cc1nc2n(c(=O)c1CCN1CC[C@@H]3[C@@H](C1)c1cc(F)ccc1N3c1ccc(F)cc1)CCCC2 (relative stereo) [Compound 25] | 0.31 mg/kg | 0.12 mg/kg | 0.02 mg/kg | 
15 | Cc1nc2sccn2c(=O)c1CCN1CC[C@H]2Nc3ccc(Cl)cc3[C@@H]2C1 (relative stereo) [Compound 26] | 0.03 mg/kg | 0.02 mg/kg | 0.005 mg/kg | 
16 | Cc1nc2scc(C)n2c(=O)c1CCN1CC[C@H]2Nc3ccc(Cl)cc3[C@@H]2C1 (relative stereo) [Compound 27] | 0.31 mg/kg | 0.31 mg/kg | 0.005 mg/kg | 
17 | Cc1nc2ccccn2c(=O)c1CCN1CC[C@H]2Nc3ccc(Cl)cc3[C@@H]2C1 (relative stereo) [Compound 28] | 0.08 mg/kg | 0.12 mg/kg | 0.005 mg/kg | > 10 mg/kg
18 | COc1ccc2c(c1)[C@@H]1CN(CCc3c(C)nc4sccn4c3=O)CC[C@H]1N2 (relative stereo) [Compound 29] | 5 mg/kg | 5 mg/kg | 0.02 mg/kg | 
19 | COc1ccc2c(c1)[C@@H]1CN(CCc3c(C)nc4ccccn4c3=O)CC[C@H]1N2 (relative stereo) [Compound 30] | ≥ 10 mg/kg | 2 mg/kg | ≤ 0.16 mg/kg | 
20 | Cc1nc(NCc2ccccc2)n(C)c(=O)c1CCN1CC[C@H]2Nc3ccc(F)cc3[C@@H]2C1 (relative stereo) [Compound 31] | 1.25 mg/kg | ≥ 10 mg/kg | ≤ 0.16 mg/kg | > 10 mg/kg
